Legend:
[1] = tested on: patients with metastatic PDAC; design: method as in PMID 24131140; settings: MPACT phase III; cited from earlier work
[2] = tested on: PANC-1-Pac cells; assay: MTT cell viability and ZIP synergy in paclitaxel-resistant PANC-1-Pac cells; format: cell-based, human; settings: for ZIP synergy score with paclitaxel: PANC-1-Pac cells, score above 10 indicates synergy
Source text: (§1) A paclitaxel-sensitive human PDAC cell line, PANC-1, was obtained (ATCC, CRL-1469) and the derived paclitaxel-resistant PANC-1-Pac cell line was established by gradually increasing concentrations of paclitaxel over a period of 2–4 months. Standard MTT and crystal violet assays were applied to evaluate the effect of treatment with either combinations of SCO-101 and paclitaxel or SRPK1-inhibitor and paclitaxel. Details are presented in the Online Resource.
Statistical analyses were mainly descriptive and included mean, median, range, and 95% CIs. Kaplan–Meier plots were constructed using Stata version 18 (StataCorp, 2023). In the preclinical study, the zero interaction potency (ZIP) synergy score was calculated as described by Yadav et al., to quantify the deviation from the expectation of zero interaction between drugs. A ZIP synergy score above 10 indicates synergy.
as §1, with “line PANC-1” for “line, PANC-1,”, “2-4” for “2–4”, “SCO-101/paclitaxel” for “SCO-101 and paclitaxel”, “SRPK1 inhibitor/paclitaxel.” for “SRPK1-inhibitor and paclitaxel. Details are presented in the Online Resource.”
The selection began at 1 nM, increased to 2 nM and 4 nM, and ended at 8 nM. For each drug concentration the cells were kept for three passages. To evaluate the effect of the treatment either a Crystal Violet assay or MTT (3-(4,5-dimethylthiazol-2-yl)-2,5-diphenyltetrazolium bromide) assay were applied.
The MTT was conducted according to standard conditions. In short, cells were seeded at a density of 7,000 cells/well into a 96-well. One day after seeding, the cells were experimentally treated. Control conditions consisted of either growth medium (‘untreated’) or DMSO diluted in growth medium. All treatments were performed in triplicates. The cells were then kept in the CO2 incubator at 37 °C for 72 hours and plates were incubated with 100μl 1:10 MTT (0.5 mg/ml dissolved in phosphate buffered saline) for 3 hours and hereafter stopped using 100μl/well stop buffer (50g Sodium Dodecyl Sulphate, 245 mL MiliQ H2O, 5mL 1.0 N HCl was added to dissolve the formazan crystals overnight. Optical densities were measured at 570 and 670 nm.
Experiments with 4 different concentrations of either SCO-101 or paclitaxel and their combinations were applied to test for synergy among these two compounds in both the PANC-1 parental and -Paclitaxel resistant cells. SCO-101 was applied in 10, 20, 40 and 50 µM whereas paclitaxel was tested in 5, 10, 15 and 20 nM for a total of 144 h, where drug was only present in the first 72h (sFig 2). The SRPK1 inhibitor SPHINX31 was tested at 0.1; 0.5; 1 and 5 µM. The SRPK1 inhibitor SRPIN was tested at 1; 5; 10 and 50 µM. Both inhibitors were tested in combination with 5, 10, 15 and 20 nM Paclitaxel.
PANC-1-Pac cells treated with paclitaxel and SRPIN340 with four different concentrations of each for a total of 144 hours. Cell viability was evaluated by MTT assays and reported as percentage of untreated control (medium). Error bars indicate percentage standard deviation.

[3] = tested on: PDAC patients; design: method as in PMID 16034525; settings: clinical phase II study; cited from earlier work
[4] = tested on: PDAC patients; design: method as in PMID 20107864; settings: phase II trial; cited from earlier work

Nc1ccn([C@@H]2O[C@H](CO)[C@@H](O)C2(F)F)c(=O)n1 [Gem, gemcitabine]
median overall survival (mOS) [1]: 6.7 months | objective response rate (ORR) [1]: 7%

O=C(Nc1cc(C(F)(F)F)ccc1N1CCN(Cc2ccccn2)CC1)c1ccc(-c2ccncc2)o1 [SPHINX31]
ZIP synergy score with paclitaxel ([2]; SPHINX31 + paclitaxel for 144 h): 57.037

O=C(Nc1cc(C(F)(F)F)ccc1N1CCCCC1)c1ccncc1 [SRPIN340]
ZIP synergy score with paclitaxel ([2]; SRPIN340 + paclitaxel, 72 h with drug + 72 h fresh media): 21.4

Cc1ccc(-c2cc(C(F)(F)F)nn2-c2ccc(S(N)(=O)=O)cc2)cc1 [celecoxib]
effect when combined with Gem and cisplatin [3]: no apparent effect

O=c1c(-c2ccc(O)cc2)coc2cc(O)cc(O)c12 [genistein]
effect when added to erlotinib and Gem [4]: no clear effect on survival

CC(=O)O[C@H]1C(=O)[C@@]2(C)[C@H]([C@H](OC(=O)c3ccccc3)[C@]3(O)C[C@H](OC(=O)[C@H](O)[C@@H](NC(=O)c4ccccc4)c4ccccc4)C(C)=C1C3(C)C)[C@]1(OC(C)=O)CO[C@@H]1C[C@@H]2O [paclitaxel]
effect on PANC-1-Pac cells (cell viability), drug alone ([2]; 72 h with drug + 72 h fresh media): dose-dependent effect | resistant phenotype to paclitaxel relative to parental PANC-1 control cell line ([2]; PANC-1-Pac vs PANC-1, MTT, 72 hours): five times higher
